Reference: paper PMC7352223, “Mapping of CaM, S100A1 and PIP2-Binding Epitopes in the Intracellular N- and C-Termini of TRPM4” (International Journal of Molecular Sciences, 2020)
Residues, ends and D or L forms follow the SMILES beside them.

Target: T1, calmodulin (CaM) (Homo sapiens, UniProt P0DP23)
T1 construct: made in house
Test: Steady-state fluorescence anisotropy (FA) binding assay, peptide titrated with CaM
Settings: carboxyfluorescein-labelled peptide titrated with CaM, 25 mM Tris-HCl pH 7.5, 250 mM NaCl, 200 µM CaCl2, 25 °C, value (SD), anisotropy measured six times per concentration, read-out: KD of peptide/CaM complex, CaM/Ca2+ KD (SD)
Protocol: First, we studied whether M4nt_WT and M4ct_WT are able to bind CaM and S100A1 at all. The carboxyfluorescein-labelled M4nt_WT and M4ct_WT peptides were titrated with increasing amounts of CaM or S100A1, and FA was measured for each point of titration. The FA increased due to a slower rotational diffusion of the formed complexes, and the fraction bound (Fb) of M4nt_WT and M4ct_WT could be calculated (Figure 2A, Figure 3A, Figure 4A, Figure 5A). Since the specific interactions of M4nt_WT and M4ct_WT with CaM/S100A1 were calcium-dependent, all samples were measured in the presence of 200-μM CaCl2. The fluorescence lifetimes τi of all peptides and their complexes (and all the following characterised peptides/complexes) were constant during all the experiments, with the values close to 3 ns. […] Overall, the FA results indicated the high affinity of M4nt_WT and M4ct_WT peptides to CaM and S100A1. Both M4nt_WT and M4ct_WT peptides thus seemed to represent potential binding epitopes on TRPM4.
The experiments were performed on a K2 spectrofluorometer (ISS, Inc., Champaign, IL, USA) at 25 °C in a cuvette with a 2-mm path length. […] Fluorescence was excited at 490 nm, and polarised emission components III and I⊥, required for the construction of the emission anisotropy, were acquired and averaged quasi-simultaneously at 525 nm by repetitive switching of the emission polariser. […] The anisotropy values r were calculated from the fluorescence intensities in the parallel (III) and perpendicular (I⊥) directions according to the relationship r = (III − GI⊥)/(III + 2GI⊥), where G is a factor correcting for different transmittance of the detection channel for the two measured polarisations (III and I⊥). The G factor was determined in a separate experiment. The measurements were repeated six times for each ligand concentration; the mean anisotropy value was calculated and used for further analysis. […] The Q was evaluated for every binding experiment from the ratio of the fluorescence lifetimes of the bound to the free M4nt, M4ct or PIP2: Q = τbound/τfree. […]

| SMILES | Kd [µM] |
| --- | --- |
| CC(C)C[C@H](NC(=O)[C@@H]1CCCN1C(=O)[C@H](CS)NC(=O)[C@H](C)NC(=O)[C@H](C)NC(=O)[C@H](CC(C)C)NC(=O)[C@H](CC(C)C)NC(=O)[C@H](CC(C)C)NC(=O)[C@H](C)NC(=O)[C@H](C)NC(=O)[C@H](C)NC(=O)[C@H](CCCNC(=N)N)NC(=O)[C@@H](NC(=O)[C@H](CCC(=O)O)NC(=O)[C@H](CO)NC(=O)[C@H](CO)NC(=O)[C@H](CCCNC(=N)N)NC(=O)[C@H](Cc1ccc(O)cc1)NC(=O)[C@H](CS)NC(=O)[C@H](CCC(=O)O)NC(=O)CNC(=O)[C@@H](N)Cc1ccccc1)C(C)C)C(=O)O [M4nt_R640A/R644A/R645A] (H-FGECYRSSEVRAAALLLAACPL-OH) | 80 |
| CC(C)C[C@H](NC(=O)[C@@H]1CCCN1C(=O)[C@H](CS)NC(=O)[C@H](CCCNC(=N)N)NC(=O)[C@H](CCCNC(=N)N)NC(=O)[C@H](CC(C)C)NC(=O)[C@H](CC(C)C)NC(=O)[C@H](CC(C)C)NC(=O)[C@H](CCCNC(=N)N)NC(=O)[C@H](C)NC(=O)[C@H](C)NC(=O)[C@H](CCCNC(=N)N)NC(=O)[C@@H](NC(=O)[C@H](CCC(=O)O)NC(=O)[C@H](CO)NC(=O)[C@H](CO)NC(=O)[C@H](C)NC(=O)[C@H](Cc1ccc(O)cc1)NC(=O)[C@H](CS)NC(=O)[C@H](CCC(=O)O)NC(=O)CNC(=O)[C@@H](N)Cc1ccccc1)C(C)C)C(=O)O [M4nt_R632A] (H-FGECYASSEVRAARLLLRRCPL-OH) | 27.2 |
| CC(C)C[C@H](NC(=O)[C@@H]1CCCN1C(=O)[C@H](CS)NC(=O)[C@H](CCCNC(=N)N)NC(=O)[C@H](CCCNC(=N)N)NC(=O)[C@H](CC(C)C)NC(=O)[C@H](CC(C)C)NC(=O)[C@H](CC(C)C)NC(=O)[C@H](C)NC(=O)[C@H](C)NC(=O)[C@H](C)NC(=O)[C@H](CCCNC(=N)N)NC(=O)[C@@H](NC(=O)[C@H](CCC(=O)O)NC(=O)[C@H](CO)NC(=O)[C@H](CO)NC(=O)[C@H](CCCNC(=N)N)NC(=O)[C@H](Cc1ccc(O)cc1)NC(=O)[C@H](CS)NC(=O)[C@H](CCC(=O)O)NC(=O)CNC(=O)[C@@H](N)Cc1ccccc1)C(C)C)C(=O)O [M4nt_R640A] (H-FGECYRSSEVRAAALLLRRCPL-OH) | 17 |
